As a reminder, the IC50 is the concentration that gives 50% inhibition. By melting point is commonly meant the temperature, or range, at which the solid turns liquid.

This is an account of results in patent publication US9259402B2, “Compounds with (1 E, 6E)-1,7-bis-(3,4-dimethoxyphenyI)-4,4-disubstituted-hepta-1,6-diene-3,5-dione structural scaffold, their biological activity, and uses thereof” (AndroScience Corporation, priority 2007, dated 2016).

Substitutions are numbered along the chain they refer to. Read-outs that look alike come from different tables or passages of the source.

One series concerns the target T1, AR protein (Homo sapiens, UniProt P10275, T878A).
T1 sequence (P10275 1-920 T878A): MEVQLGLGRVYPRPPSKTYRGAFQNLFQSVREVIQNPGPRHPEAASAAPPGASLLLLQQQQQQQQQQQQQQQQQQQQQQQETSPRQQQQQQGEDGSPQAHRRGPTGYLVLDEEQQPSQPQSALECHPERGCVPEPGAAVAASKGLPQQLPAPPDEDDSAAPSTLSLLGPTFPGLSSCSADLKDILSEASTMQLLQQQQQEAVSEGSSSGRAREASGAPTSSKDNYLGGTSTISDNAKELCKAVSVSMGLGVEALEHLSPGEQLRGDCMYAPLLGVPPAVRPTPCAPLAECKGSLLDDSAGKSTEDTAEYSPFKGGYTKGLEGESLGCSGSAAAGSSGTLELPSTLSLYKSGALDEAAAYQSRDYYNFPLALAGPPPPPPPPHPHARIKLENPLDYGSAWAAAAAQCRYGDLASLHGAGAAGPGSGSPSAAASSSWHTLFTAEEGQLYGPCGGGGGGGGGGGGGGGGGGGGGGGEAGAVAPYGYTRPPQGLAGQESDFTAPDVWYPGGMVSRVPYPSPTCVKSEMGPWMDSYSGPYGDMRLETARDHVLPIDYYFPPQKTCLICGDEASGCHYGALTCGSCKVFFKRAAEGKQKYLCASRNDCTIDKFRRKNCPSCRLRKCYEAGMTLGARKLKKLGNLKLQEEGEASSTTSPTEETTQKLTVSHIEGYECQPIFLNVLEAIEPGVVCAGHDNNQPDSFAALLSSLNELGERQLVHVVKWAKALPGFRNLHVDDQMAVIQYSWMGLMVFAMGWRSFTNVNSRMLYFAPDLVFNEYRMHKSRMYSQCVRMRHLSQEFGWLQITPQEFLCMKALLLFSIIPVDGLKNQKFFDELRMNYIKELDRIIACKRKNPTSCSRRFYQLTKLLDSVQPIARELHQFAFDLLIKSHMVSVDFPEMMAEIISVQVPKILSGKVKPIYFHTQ
The series can be described thus: Cycloheximide chasing assay of AR degradation in LNCaP cells. The settings on record: in the presence of cycloheximide (CHX). It is filed as cell-based. As to the method: AR protein “degradation” in prostate cancer cells was measured by using cycloheximide (a protein synthesis inhibitor) chasing assay method. Briefly, LNCaP cells were incubated with testing ASC compound at the designated concentrations for 24 hours. Subsequently, cycloheximide was added to the cells at a concentration of 15 μg/ml to block new protein synthesis. After incubation, cells were harvested at designated time periods and the resultant change in AR protein levels were analysed using Western Blot analysis as described above.

The target of series [1] is T2, Androgen Receptor (AR) protein expression (Homo sapiens, UniProt P10275, T878A).
T2 sequence (P10275 1-920 T878A): T1 sequence (P10275 1-920 T878A)
The series can be described thus: Western Blot analysis of AR protein expression in LNCaP cells. In kind it is cell-based. A general note: In western blotting, separated proteins are transferred to a membrane and probed.

Series [2] addresses T3, Androgen Receptor (AR) protein expression (Homo sapiens, UniProt P10275, H875Y, form not given).
T3 sequence (P10275 1-920 H875Y): T1 sequence (P10275 1-920 T878A) with H875Y, A878T
Nature of the series: Western Blot analysis of AR protein expression in CWR22Rv1 cells. Conditions: for IC50: read-out: Reduction of AR expression IC50 (μM) 24 h, Western blotting, 24 h post-incubation.

For series [3], the system named is CWR22Rv1 cells (human prostate cancer). The series can be described thus: MTT cell growth assay, CWR22Rv1 cells. It is filed as cell-based. Conditions: 5 days, read-out: Inhibition of Tumor cells growth IC50. As to the method: The MTT cell proliferation assay was applied in the present invention to detect the capability of compounds to suppress or inhibit prostate cancer cells growth. […] Briefly, 1×10^3 LNCaP or CWR22Rv1 cells suspended in complete medium were plated into each well of a 96-well Microtest III tissue culture plate (Falcon, N.J.). Two days later, the medium was replaced with RPMI-1640 medium containing 10% charcoal/dextran-deprived FBS (hormone-deprived fetal bovine serum). Testing compounds were added to the medium at indicated concentrations with or without 1 nM DHT and cells were cultured for 5 days in an incubator (at 37° C.). MTT substrate solution (5 mg/ml in PBS) in 1/10 of volume was added to the cells in each well at 2 hours before harvesting. After 2 hour incubation, the plates were centrifuged (10 min at 1,000 rpm) and the supernatant from each well was carefully removed. A 100 μl of lysis buffer (50% dimethyl formamide, 5% sodium dodecyl sulphate, 0.35 M acetic acid, and 50 mM HCl) was added to each well to lyse the cells and dissolved tetrazolium in each well. The relative quantity of enzyme activity from each well was measured based on absorbance read at a wavelength of 450 nm using a Bio-RAD BenchMark microplate reader. Data derived from the MTT assay were also verified by the actual cell count and cell morphology on a separate plate set up in parallel.
For inhibition of tumor cell growth, in vitro, cells were growth in the presence of testing compounds for 5 days, and the cell growth was assayed by standard MTT assay.

A short description of series [4]: Stability in acidic condition (0.1 N HCl, 37° C.). It is filed as physicochemical. The source says:
(§1) Also, at 24 hr where stability of JM49 was only 4%, while its derivative Compound 6 had improved to 79%. Similar improvements in stability (from 6-24 hr) were also observed in the conditions of rat plasma (Table 4) and human plasma (Table 5).

A short description of series [5]: Stability in human plasma. It is filed as in vitro ADME. Conditions: 37° C.
From the text: as §1

A short description of the next series: Stability in rat plasma. It is filed as in vitro ADME. The settings on record: 37° C.
From the text: as §1

Take `COc1ccc(C=CC(=O)C=C(O)C=Cc2ccc(OC)c(OC)c2)cc1OC` [ASC-J9 ®, 1,7-Bis-(3,4-dimethoxy-phenyl)-5-hydroxy-hepta-1,4,6-trien-3-one, reference compound]: on AR protein, the “AR protein degradation (Western Blot, in words)” value was “enhances AR protein degradation”.
In the case of `COc1ccc(/C=C/C(=O)C(C(=O)/C=C/c2ccc(OC)c(OC)c2)=C(O)/C=C/c2ccc(OC)c(OC)c2)cc1OC` [ASC-JM4], the “Reduction of AR expression (Western Blot, in words)” value in series [1] and in series [2] was “capable of reducing endogenous AR expression” each time.
Turning to `COc1ccc(/C=C/C(=O)C2CC(c3ccc(OC)c(OC)c3)(C(C(=O)/C=C/c3ccc(OC)c(OC)c3)C(=O)/C=C/c3ccc(OC)c(OC)c3)CC2=O)cc1OC` (centres unmarked) [ASC-JM5], the “AR protein degradation (Western Blot, in words)” value at AR protein was “enhances AR protein degradation”.
On to `COc1ccc(/C=C/C(=O)C(C)(CC2CC2)C(=O)/C=C/c2ccc(OC)c(OC)c2)cc1OC` [Compound 1], for which the IC50 in series [3] (Homo sapiens, 120 h) came out at 2.4 µM.
Take `COc1ccc(/C=C/C(=O)C(C)(CC2CCC2)C(=O)/C=C/c2ccc(OC)c(OC)c2)cc1OC` [Compound 2]: the melting point lay in the range of 161 to 162 °C.
With `COc1ccc(C=CC(=O)C(CC2CCCC2)=C(O)C=Cc2ccc(OC)c(OC)c2)cc1OC` [Compound 3], the IC50 in series [2] was 2.8 µM.
On to `COc1ccc(/C=C/C(=O)C(C)(CC2CCCCC2)C(=O)/C=C/c2ccc(OC)c(OC)c2)cc1OC` [Compound 5], for which the melting point lay within 128 to 129 °C. In series [3] (Homo sapiens, 120 h), the IC50 came out at 4.6 µM.
As to `CCN(CC)C(=O)CC(C)(C(=O)/C=C/c1ccc(OC)c(OC)c1)C(=O)/C=C/c1ccc(OC)c(OC)c1` [Compound 6], the “Concentration change (%) in acidic condition” value was determined as 100% in series [4] (0 h); 100% in series [4] (2 h); 99% in series [4] (4 h); 79% in series [4] (24 h); 56% in series [4] (48 h). The “Concentration change (%) in human plasma” value in series [5] (0 h) is 100%; in series [5] (6 h), 91%; in series [5] (24 h) it was 54%; in series [5] (48 h) it was 27%.
On to `COc1ccc(/C=C/C(=O)C(C)(CC(=O)N(C)C)C(=O)/C=C/c2ccc(OC)c(OC)c2)cc1OC` [Compound 7], for which the “Concentration change (%) in acidic condition” value in series [4] (0 h) was 100%; in series [4] (1 h), 99%; in series [4] (2 h) it was 99%; in series [4] (4 h), 98%; in series [4] (24 h), 81%; in series [4] (48 h), 58%. In addition, the “Concentration change (%) in human plasma” value in series [5] (6 h) was found to be 95%; in series [5] (24 h) it was 71%; in series [5] (48 h), 49%.
In turn, `COc1ccc(/C=C/C(=O)C(F)(CC2CC2)C(=O)/C=C/c2ccc(OC)c(OC)c2)cc1OC` [Compound 13] showed a melting point of 104 to 105 °C.
`COc1ccc(/C=C/C(=O)C(F)(CC2CCC2)C(=O)/C=C/c2ccc(OC)c(OC)c2)cc1OC` [Compound 14] registered a melting point of 98 to 100 °C.
For the compound `COc1ccc(/C=C/C(=O)C(F)(CC(=O)N(C)C)C(=O)/C=C/c2ccc(OC)c(OC)c2)cc1OC` [Compound 18], the IC50 in series [3] (Homo sapiens, 120 h) was above 7.5 µM.
For the compound `CCCCC(F)(C(=O)C=Cc1ccc(OC)c(OC)c1)C(=O)C=Cc1ccc(OC)c(OC)c1` (centres unmarked) [Compound 19], the values for the IC50 in series [3] and in series [2] were 4.7 µM and above 5 µM, respectively.
As to `COc1ccc(/C=C/C(=O)C(CC(=O)N(C)C)=C(O)/C=C/c2ccc(OC)c(OC)c2)cc1OC` [JM77], the “Concentration change (%) in acidic condition” value in series [4] (0 h) is 100%; in series [4] (1 h) it was 14%; in series [4] (2 h), 8%; in series [4] (6 h), 0%; in series [4] (24 h) it was 0%. In addition, the “Concentration change (%) in rat plasma” value was 100% in “Stability in rat plasma” (0 h); 93% in “Stability in rat plasma” (1 h); 88% in “Stability in rat plasma” (2 h); 73% in “Stability in rat plasma” (6 h); 27% in “Stability in rat plasma” (24 h); 7% in “Stability in rat plasma” (48 h). Also, the “Concentration change (%) in human plasma” value in series [5] (0 h) was 100%; in series [5] (1 h) it was 88%; in series [5] (2 h) it was 76%; in series [5] (6 h), 45%; in series [5] (24 h) it was 11%; in series [5] (48 h), 1%.
On to `CCOC(=O)CCC(=O)C=Cc1ccc(O)c(OC)c1` [Monomer 6, 6-(4-Hydroxy-3-methoxy-phenyl)-4-oxo-hex-5-enoic acid ethyl ester], for which the melting point was in the range of 55 to 56 °C.
